Results from patent US20250027130A1, “Nucleic Acid Synthesis and Sequencing Using Tethered Nucleoside Triphosphates” (The Regents of the University of California, priority 2022, published 2025).
“Also recorded” adds a separate entry of the source.

Key:
[1] = test system: DH10B cells co-expressing MaFRSA; assay: In vivo incorporation at position 200 of sfGFP, MaFRSA (intact mass, GluC LC-MS/MS); assay type: cell-based, E. coli
MaPylRS = assay: RNAse A/LC-HRMS assay of Ma-tRNA^Pyl acylation by MaPylRS; assay type: biochemical, Methanomethylophilus alvus; details: some statements also rest on intact tRNA analysis
MaFRSA (N166A, V168A) [2] = assay: RNAse A/LC-HRMS assay of Ma-tRNA^Pyl acylation by MaFRSA; assay type: biochemical, Methanomethylophilus alvus; details: RNAse A/LC-HRMS and intact tRNA analysis
MaFRS1 (N166A, V168L) [3] = assay: RNAse A/LC-HRMS assay of Ma-tRNA^Pyl acylation by MaFRS1; assay type: biochemical, Methanomethylophilus alvus; details: some statements also rest on intact tRNA analysis
MaFRS2 (N166A, V168K) [4] = assay: RNAse A/LC-HRMS assay of Ma-tRNA^Pyl acylation by MaFRS2; assay type: biochemical, Methanomethylophilus alvus; details: some statements also rest on intact tRNA analysis
MaFRS1 (N166A, V168L) [5] = assay: Intact tRNA mass spectrometry: acylation of Ma-tRNA^Pyl by MaFRS1; assay type: biochemical, Methanomethylophilus alvus; details: MaFRS1 2.5 μM, Ma-tRNA^Pyl 25 μM, 37° C., 2 h; average of 3 technical replicates
MaFRS2 (N166A, V168K) [6] = assay: Intact tRNA mass spectrometry: acylation of Ma-tRNA^Pyl by MaFRS2; assay type: biochemical, Methanomethylophilus alvus; details: MaFRS2 2.5 μM, Ma-tRNA^Pyl 25 μM, 37° C., 2 h; average of 3 technical replicates
MaFRSA (N166A, V168A) [7] = assay: Intact tRNA mass spectrometry: acylation of Ma-tRNA^Pyl by MaFRSA; assay type: biochemical, Methanomethylophilus alvus; details: for Yield of diacylated Ma-tRNA^Pyl / Yield of monoacylated Ma-tRNA^Pyl: MaFRSA 2.5 μM, Ma-tRNA^Pyl 25 μM, 37° C., 2 h, average of 3 technical replicates
MaFRSA = assay: Malachite green assay to monitor adenylation by MaFRSA; assay type: biochemical, Methanomethylophilus alvus
Procedure: Malachite green assay to monitor adenylation. Enzymatic adenylation reactions were monitored using malachite green using a previous protocol with modifications^52. Each adenylation reaction (60 μL) contained the following components: 200 mM HEPES-K (pH 7.5), 4 mM DTT, 10 mM MgCl2, 0.2 mM ATP, 0-10 mM substrate, 4 U/mL E. coli inorganic pyrophosphatase (NEB), and 2.5 μM enzyme (MaFRS1 or MaFRSA). Adenylation reactions were incubated at 37° C. in a dry-air incubator. Aliquots (10 μL) were withdrawn after 0, 5, 10, 20, and 30 min and quenched upon addition to an equal volume of 20 mM EDTA (pH 8.0) on ice. Once all aliquots were withdrawn, 80 μL of Malachite Green Solution (Echelon Biosciences) was added to each aliquot and the mixture incubated at RT for 30 min. After shaking for 30 sec to remove bubbles, the absorbance at 620 nm was measured on a Synergy HTX plate reader (BioTek). The absorbance was then converted to phosphate concentration using a phosphate standard curve (0-100 μM) and plotted over time to determine turnover numbers.

[8] = samples vi-vii, DH10B, defined media lacking glutamate, 1 mM substrate

Row | Compound | Substrate activity for MaFRSA (in words) (MaFRSA (N166A, V168A) [2]) | Substrate activity for MaFRS1 (in words) (MaFRS1 (N166A, V168L) [3]) | Substrate activity for MaFRS2 (in words) (MaFRS2 (N166A, V168K) [4]) | Yield of diacylated Ma-tRNA^Pyl (MaFRS1 (N166A, V168L) [5]) | Yield of monoacylated Ma-tRNA^Pyl (MaFRS1 (N166A, V168L) [5]) | Yield of diacylated Ma-tRNA^Pyl (MaFRS2 (N166A, V168K) [6]) | Yield of monoacylated Ma-tRNA^Pyl (MaFRS2 (N166A, V168K) [6]) | Yield of diacylated Ma-tRNA^Pyl (MaFRSA (N166A, V168A) [7]) | Yield of monoacylated Ma-tRNA^Pyl (MaFRSA (N166A, V168A) [7]) | further results
1 | N[C@@H](Cc1cccc(C(F)(F)F)c1)C(=O)O [Sample 20] |  |  |  |  |  |  |  |  |  | sfGFP containing variant 20 at position 200 [1, 8]: 97.14%
2 | CC(C)(C)OC(=O)NCCCC[C@@H](N)C(=O)O [Substrate 5, N^ε-(tert-butoxycarbonyl)-D-lysine] |  |  |  |  |  |  |  |  |  | Substrate activity for MaPylRS (in words) (MaPylRS): No reactivity was detected
3 | N[C@@H](Cc1ccccc1)C(=O)O [Substrate 7, L-phenylalanine, reference compound] | low activity |  |  |  |  |  |  |  |  | 
4 | N[C@H](Cc1ccccc1)C(=O)O [Substrate 11, D-phenylalanine] |  | no reactivity was detected | no reactivity was detected |  |  |  |  |  |  | 
5 | CC(C)(C)OC(=O)NCCCCC(C(=O)O)C(=O)O [Substrate 16] |  |  |  |  |  |  |  |  |  | Substrate activity for MaPylRS (in words) (MaPylRS): accepts; also recorded: measurable substrate
6 | Cc1cccc(CC(C(=O)O)C(=O)O)c1 [Substrate 17] | high activity | accept; also recorded: excellent substrates | accept; also recorded: excellent substrates | 3.64% | 49.8% | 0% | 52.0% | 1.54% | 9.48% | 
7 | O=C(O)C(Cc1cccc(C(F)(F)F)c1)C(=O)O [Substrate 18] | highest activity | accept; also recorded: excellent substrates | accept; also recorded: excellent substrates | 9.24% | 59.3% | 0% | 26.1% | 0% | 31.4% | Acylation product in competition of L-Phe 7 and 18 (MaFRSA (N166A, V168A) [7]; MaFRSA incubated with equal concentration (10 mM) of L-Phe 7 and meta-CF3-2-BMA 18): Only the acylation product of 18 and Ma-tRNA^Pyl is observed; also recorded: only the malonyl product (18-tRNA^Pyl) is observed; Rate of adenylation as % of the rate observed for meta-CF3-L-Phe (MaFRSA): 36%
8 | O=C(O)C(Cc1cccc(Br)c1)C(=O)O [Substrate 19] | high activity | accept; also recorded: excellent substrates | accept; also recorded: excellent substrates | 10.8% | 37.4% | 0% | 32.7% | 0% | 22.3% | 
9 | N[C@@H](Cc1cccc(C(F)(F)F)c1)C(=O)O [Substrate 20] |  |  |  |  |  |  |  |  |  | Intact mass of expressed sfGFP variant (in words) ([1]; E. coli DH10B, 1 mM monomer, sfGFP-200TAG): mass corresponded to the presence of a single trifluoromethyl phenylalanine side chain; sfGFP containing variant 1 at position 200 [1, 8]: 0.00%; sfGFP containing variant 2 at position 200 [1, 8]: 0.00%; sfGFP containing variant 21 at position 200 [1, 8]: 0.63%; sfGFP containing variant A at position 200 [1, 8]: 0.14%; sfGFP containing variant F at position 200 [1, 8]: 0.15%; sfGFP containing variant K at position 200 [1, 8]: 0.14%; sfGFP containing variant Q at position 200 [1, 8]: 0.62%; sfGFP containing variant W at position 200 [1, 8]: 1.02%; sfGFP containing variant Y at position 200 [1, 8]: 0.15%
